This series can be described thus: in vivo. The note with it: for Mean concentration of Example 4B: single IM 20 mg/kg equivalent of EFdA. An excerpt:
General Protocol for Prodrugs Rat PK Studies Conducted at ChemPartner, China
A total of three naïve male Wistar Han rats, 200-250 g, were received from Beijing VR Laboratory Animal Co. LTD. Following an acclimation period, the animals were assigned to the study based on acceptable health as determined by a staff veterinarian and catheter patency. Fasting of the animals before or after dosing was not required.
On Day 1, each animal received a single intramuscular injection of prepared test article at a target dose level of 20 mg/kg equivalent of EFdA and at a dose volume of 2 mL/kg. The injection sites were at gastrocnemius and identified with an indelible marker for daily monitoring during the study. The animals were manually restrained for dosing and were not sedated. The dose suspension was mixed well by inversion before each dose to ensure homogeneity. […] In addition, all animals are monitored twice daily by the veterinary staff for clinical abnormalities.
Blood samples were collected from the study animals as detailed in the sample collection Table 6 below
Each blood sample for PK (200 μL) was collected from tail vein. The blood was transferred to a tube containing NaF/Na2EDTA anticoagulant and inverted several times to mix. Draw 150 μL whole blood from the tube, add 150 uL 100 mM ammonium acetate, pH 4 buffer and mix well. The resulting blood samples were transferred to individual polypropylene tubes and immediately placed on dry ice until storage at nominally −80° C. prior to LC-MS/MS analysis.

Where [1] appears, read: day 28, single IM Example 2B 20 mg/kg.
Setting [2] is: day 35, single IM Example 2B 20 mg/kg.
The mark [3] stands for this setting: day 14, single IM Example 9B 20 mg/kg equivalent of EFdA.
The mark [4] stands for this setting: day 21, single IM Example 9B 20 mg/kg equivalent of EFdA.
Setting [5] is: day 28, single IM Example 9B 20 mg/kg equivalent of EFdA.

Results on three molecules are retold here after US20230151049A1, “Compounds Useful in HIV Therapy” (priority 2020, published 2023).

SMILES strings stand for the structures. Like-named read-outs stand apart in the source and are kept apart here.

As for `C#C[C@]1(COP(=O)(N[C@@H](Cc2ccccc2)C(=O)OCCCCCCCCCCCCCCCC)Oc2ccccc2)O[C@@H](n2cnc3c(N)nc(F)nc32)C[C@@H]1O` (single isomer, unassigned) [Example 2B], the “Mean concentration of EFdA” value is “BQL (BQL = below quantification limit, 0.2-0.3 ng/mL for both)” (day 1, single IM Example 2B 20 mg/kg); “BQL (BQL = below quantification limit, 0.2-0.3 ng/mL for both)” (day 7, single IM Example 2B 20 mg/kg); “BQL (BQL = below quantification limit, 0.2-0.3 ng/mL for both)” (day 14, single IM Example 2B 20 mg/kg); “BQL (BQL = below quantification limit, 0.2-0.3 ng/mL for both)” (day 21, single IM Example 2B 20 mg/kg); “BQL (BQL = below quantification limit, 0.2-0.3 ng/mL for both)” under setting [1]; “BQL (BQL = below quantification limit, 0.2-0.3 ng/mL for both)” under setting [2]. In addition, the “Mean concentration of Example 2B” value is given as “BQL (BQL = below quantification limit, 0.2-0.3 ng/mL for both)” under setting [1] and “BQL (BQL = below quantification limit, 0.2-0.3 ng/mL for both)” under setting [2]. Moreover, the concentration at 1 day (male, Wistar Han, rat, in vivo, day 1, single IM Example 2B 20 mg/kg, read-out: Mean concentration of Example 2B) came out at 0.514 ng/mL. In addition, under “male, Wistar Han, rat, in vivo, day 7, single IM Example 2B 20 mg/kg, read-out: Mean concentration of Example 2B”, the concentration at 7 day worked out at 0.708 ng/mL. The concentration at 14 day (male, Wistar Han, rat, in vivo, day 14, single IM Example 2B 20 mg/kg, read-out: Mean concentration of Example 2B) worked out at 1.11 ng/mL. In addition, under “male, Wistar Han, rat, in vivo, day 21, single IM Example 2B 20 mg/kg, read-out: Mean concentration of Example 2B”, the concentration at 21 day is 1.33 ng/mL.

With `C#C[C@]1(COP(=O)(N[C@@H](Cc2ccccc2)C(=O)OCCCCCCCCCC)Oc2ccccc2)O[C@@H](n2cnc3c(N)nc(F)nc32)C[C@@H]1O` (single isomer, unassigned) [Example 4B], the “Mean concentration of Example 4B” value is, setting by setting: (day 0.0208) “BQL (BQL = below quantification limit, 0.5 ng/mL for Example 4B and 0.5 to 1 ng/mL for EFdA)”; (day 0.0417) “BQL (BQL = below quantification limit, 0.5 ng/mL for Example 4B and 0.5 to 1 ng/mL for EFdA)”; (day 0.125) “BQL (BQL = below quantification limit, 0.5 ng/mL for Example 4B and 0.5 to 1 ng/mL for EFdA)”; (day 0.208) “BQL (BQL = below quantification limit, 0.5 ng/mL for Example 4B and 0.5 to 1 ng/mL for EFdA)”; (day 0.292) “BQL (BQL = below quantification limit, 0.5 ng/mL for Example 4B and 0.5 to 1 ng/mL for EFdA)”; (day 1) “BQL (BQL = below quantification limit, 0.5 ng/mL for Example 4B and 0.5 to 1 ng/mL for EFdA)”. In addition, the “Mean concentration of Example 4B” value (day 2) was “BQL (BQL = below quantification limit, 0.5 ng/mL for Example 4B and 0.5 to 1 ng/mL for EFdA)”; the “Mean concentration of Example 4B” value (day 3) is “BQL (BQL = below quantification limit, 0.5 ng/mL for Example 4B and 0.5 to 1 ng/mL for EFdA)”; the “Mean concentration of Example 4B” value (day 4) was “BQL (BQL = below quantification limit, 0.5 ng/mL for Example 4B and 0.5 to 1 ng/mL for EFdA)”; the “Mean concentration of Example 4B” value (day 5) was “BQL (BQL = below quantification limit, 0.5 ng/mL for Example 4B and 0.5 to 1 ng/mL for EFdA)”; the “Mean concentration of Example 4B” value (day 7) is “BQL (BQL = below quantification limit, 0.5 ng/mL for Example 4B and 0.5 to 1 ng/mL for EFdA)”. Moreover, the “Mean concentration of EFdA” value runs as follows: (day 14, single IM Example 4B 20 mg/kg equivalent of EFdA) “BQL (BQL = below quantification limit, 0.5 ng/mL for Example 4B and 0.5 to 1 ng/mL for EFdA)”; (day 17, single IM Example 4B 20 mg/kg equivalent of EFdA) “BQL (BQL = below quantification limit, 0.5 ng/mL for Example 4B and 0.5 to 1 ng/mL for EFdA)”; (day 21, single IM Example 4B 20 mg/kg equivalent of EFdA) “BQL (BQL = below quantification limit, 0.5 ng/mL for Example 4B and 0.5 to 1 ng/mL for EFdA)”; (day 24, single IM Example 4B 20 mg/kg equivalent of EFdA) “BQL (BQL = below quantification limit, 0.5 ng/mL for Example 4B and 0.5 to 1 ng/mL for EFdA)”; (day 28, single IM Example 4B 20 mg/kg equivalent of EFdA) “BQL (BQL = below quantification limit, 0.5 ng/mL for Example 4B and 0.5 to 1 ng/mL for EFdA)”; (day 31, single IM Example 4B 20 mg/kg equivalent of EFdA) “BQL (BQL = below quantification limit, 0.5 ng/mL for Example 4B and 0.5 to 1 ng/mL for EFdA)”.

`C#C[C@]1(COP(=O)(N[C@@H](Cc2ccccc2)C(=O)OCCCCCCCCCC)OCC(=O)OCCCCCCCCCC)O[C@@H](n2cnc3c(N)nc(F)nc32)C[C@@H]1O` (single isomer, unassigned) [Example 9B]: the “Mean concentration of EFdA” value under setting [3] was “BQL (BQL = below quantification limit, 0.2-0.3 ng/mL for Example 9B and 0.2 ng/mL for EFdA)”; the “Mean concentration of EFdA” value under setting [4] is “BQL (BQL = below quantification limit, 0.2-0.3 ng/mL for Example 9B and 0.2 ng/mL for EFdA)”; the “Mean concentration of EFdA” value under setting [5] was “BQL (BQL = below quantification limit, 0.2-0.3 ng/mL for Example 9B and 0.2 ng/mL for EFdA)”. Besides, the “Mean concentration of Example 9B” value under setting [3] was “BQL (BQL = below quantification limit, 0.2-0.3 ng/mL for Example 9B and 0.2 ng/mL for EFdA)”; the “Mean concentration of Example 9B” value under setting [4] was “BQL (BQL = below quantification limit, 0.2-0.3 ng/mL for Example 9B and 0.2 ng/mL for EFdA)”; the “Mean concentration of Example 9B” value under setting [5] is “BQL (BQL = below quantification limit, 0.2-0.3 ng/mL for Example 9B and 0.2 ng/mL for EFdA)”. Besides, the concentration at 1 day (male, Wistar Han, rat, whole blood, intramuscular, day 1, single IM Example 9B 20 mg/kg equivalent of EFdA, read-out: Mean concentration of Example 9B) stood at 3.01 ng/mL. The concentration at 7 day (male, Wistar Han, rat, whole blood, intramuscular, day 7, single IM Example 9B 20 mg/kg equivalent of EFdA, read-out: Mean concentration of Example 9B) was 0.663 ng/mL.
